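The compound was tested at five concentrations on cells cultured in 96-well plates, with a 48-hour exposure period. GI50 = concentration required for 50% inhibition of growth. TGI: total growth inhibition.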
Key:
Experiment in all cases: inhibition of tumour cell growth, NCI panel, 48 h
[1] = test system: 786-0 renal
[2] = test system: HT29 colon
[3] = test system: NCI-H226 lung
[4] = test system: NCI-H522 lung
[5] = test system: PC-3 prostate
[6] = test system: RPMI-8226 leukemia
[7] = test system: SF-539 CNS
[8] = test system: SK-OV-3 ovarian
[9] = test system: SNB-19 CNS
[10] = test system: SW-620 colon

CC(=O)C1=C(O)C=C2Oc3c(C(=O)/C=C/c4c(Cl)cccc4Cl)c(O)c(C)c(O)c3[C@]2(C)C1=O
GI50 [1]: 1.71 µM | TGI [1]: 5.44 µM | GI50 [2]: 1.73 µM | TGI [2]: 6.23 µM | GI50 [3]: 2.47 µM | TGI [3]: 5.14 µM | GI50 [4]: 0.46 µM | TGI [4]: 2.77 µM | GI50 [5]: 0.596 µM | TGI [5]: 2.49 µM | GI50 [6]: 0.5 µM | TGI [6]: 1.77 µM | GI50 [7]: 2.19 µM | TGI [7]: 4.91 µM | GI50 [8]: 2.57 µM | TGI [8]: 7.4 µM | GI50 [9]: 1.08 µM | TGI [9]: 5.93 µM | GI50 [10]: 0.64 µM | TGI [10]: 3.13 µM

O=C(c1ccccc1)C(CN1CCCCC1)c1ccccc1 (stereo not given)
GI50 [1]: 1.91 µM | TGI [1]: 3.45 µM | GI50 [2]: 0.892 µM | TGI [2]: 5.67 µM | GI50 [3]: 3.67 µM | TGI [3]: 14.8 µM | GI50 [4]: 0.316 µM | TGI [4]: 2.53 µM | GI50 [5]: 1.69 µM | TGI [5]: 3.83 µM | GI50 [6]: 0.539 µM | TGI [6]: 2.88 µM | GI50 [7]: 1.96 µM | TGI [7]: 3.94 µM | GI50 [8]: 7.27 µM | TGI [8]: 24.8 µM | GI50 [9]: 9.6 µM | TGI [9]: 21.5 µM | GI50 [10]: 0.583 µM | TGI [10]: 2.17 µM

C[C@@]12CCC[C@@](C)(C(=O)O)C1CC[C@]13C[C@@](O)(CO)[C@](O)(CCC12)C3 (stereo not given in full)
GI50 [1]: > 100 µM | TGI [1]: > 100 µM | GI50 [2]: > 100 µM | TGI [2]: > 100 µM | GI50 [3]: > 100 µM | TGI [3]: > 100 µM | GI50 [4]: > 100 µM | TGI [4]: > 100 µM | GI50 [5]: > 100 µM | TGI [5]: > 100 µM | GI50 [6]: > 100 µM | TGI [6]: > 100 µM | GI50 [7]: > 100 µM | TGI [7]: > 100 µM | GI50 [8]: > 100 µM | TGI [8]: > 100 µM | GI50 [9]: > 100 µM | TGI [9]: > 100 µM | GI50 [10]: > 100 µM | TGI [10]: > 100 µM

Nc1nnnn1CCO
TGI [1]: > 100 µM | TGI [2]: > 100 µM | TGI [3]: > 100 µM | TGI [4]: > 100 µM | TGI [5]: > 100 µM | TGI [6]: > 100 µM | TGI [7]: > 100 µM | TGI [8]: > 100 µM | TGI [9]: > 100 µM | TGI [10]: > 100 µM

[N-]=[N+]=NCCCCCC(=O)OC(C(=O)c1ccccc1)c1cccc(OCC(=O)NCCOCCOCCNC(=O)CCCC[C@@H]2SC[C@@H]3NC(=O)N[C@@H]32)c1 (stereo not given in full)
GI50 [1]: > 100 µM | TGI [1]: > 100 µM | GI50 [2]: > 100 µM | TGI [2]: > 100 µM | GI50 [3]: > 100 µM | TGI [3]: > 100 µM | GI50 [4]: > 100 µM | TGI [4]: > 100 µM | GI50 [5]: > 100 µM | TGI [5]: > 100 µM | GI50 [6]: 29.3 µM | TGI [6]: > 100 µM | GI50 [7]: 25.3 µM | TGI [7]: 72.7 µM | GI50 [8]: > 100 µM | TGI [8]: > 100 µM | GI50 [9]: > 100 µM | TGI [9]: > 100 µM | GI50 [10]: > 100 µM | TGI [10]: > 100 µM

c1ccc(CN2COc3c(ccc4c3OCN(Cc3ccccc3)C4)C2)cc1
GI50 [1]: 0.809 µM | TGI [1]: > 100 µM | GI50 [2]: 0.955 µM | TGI [2]: > 100 µM | GI50 [3]: 0.479 µM | TGI [3]: 5.65 µM | GI50 [4]: 2.05 µM | TGI [4]: > 100 µM | GI50 [5]: 0.579 µM | TGI [5]: > 100 µM | GI50 [6]: 1.41 µM | TGI [6]: > 100 µM | GI50 [7]: 1.45 µM | TGI [7]: 6.41 µM | GI50 [8]: 0.639 µM | TGI [8]: > 100 µM | GI50 [9]: 1 µM | TGI [9]: > 100 µM | GI50 [10]: 0.494 µM | TGI [10]: > 100 µM
